pIC50: −log10 of the molar value. Values belong to the compound of their own block, whether it stands above or below them.
Test system: MDA-MB-231 multicell spheroids, viability
Experiment: Anticancer human tumor MDA-MB-231 cell line growth inhibition [PI3K];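 note: spheroids exposed to agents for seven days before reading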;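 for viability, T/C: percent of vehicle control luminescence with DMSO treated spheroids as 100%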
Conditions: for pIC50: curve of first compound; for viability, T/C: stronger effect = lower value
Method in brief: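 Targeted small molecules plus PI3K inhibitors, half-log dose series from Cmax (default top 10 microM), were applied to heterotypic spheroids of cancer cells with HUVEC and MSCs. Viability indicated growth inhibition.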

[1] = second compound 0.0316 µM, first compound 0.0316 µM
[2] = second compound 0.0316 µM, first compound 0.1 µM
[3] = second compound 0.0316 µM, first compound 0.316 µM
[4] = second compound 0.0316 µM, first compound 1 µM
[5] = second compound 0.0316 µM, first compound 3.16 µM
[6] = second compound 0.0316 µM, first compound 10 µM
[7] = second compound 0.1 µM, first compound 0.0316 µM
[8] = second compound 0.1 µM, first compound 0.1 µM
[9] = second compound 0.1 µM, first compound 0.316 µM
[10] = second compound 0.1 µM, first compound 1 µM
[11] = second compound 0.1 µM, first compound 3.16 µM
[12] = second compound 0.1 µM, first compound 10 µM
[13] = second compound 0.316 µM, first compound 0.0316 µM
[14] = second compound 0.316 µM, first compound 0.1 µM
[15] = second compound 0.316 µM, first compound 0.316 µM
[16] = second compound 0.316 µM, first compound 1 µM
[17] = second compound 0.316 µM, first compound 3.16 µM
[18] = second compound 0.316 µM, first compound 10 µM
[19] = second compound 1 µM, first compound 0.0316 µM
[20] = second compound 1 µM, first compound 0.1 µM
[21] = second compound 1 µM, first compound 0.316 µM
[22] = second compound 1 µM, first compound 1 µM
[23] = second compound 1 µM, first compound 3.16 µM
[24] = second compound 1 µM, first compound 10 µM

pIC50 (second compound 0.00316 µM): 5.35
pIC50 (second compound 0.01 µM): 5.44
pIC50 (second compound 0.0316 µM): 5.61
pIC50 (second compound 0.1 µM): 5.73
pIC50 (second compound 0.316 µM): 5.91
pIC50 (second compound 1 µM): 5.96
SMILES: CCCS(=O)(=O)Nc1ccc(F)c(C(=O)c2c[nH]c3ncc(-c4ccc(Cl)cc4)cc23)c1F + CC(Nc1ccc2c(c1)OCCn1cc(N3C(=O)OCC3C(F)F)nc1-2)C(N)=O
viability, T/C (second compound 0.00316 µM, first compound 0.0316 µM): 98.5%
viability, T/C (second compound 0.00316 µM, first compound 0.1 µM): 94.9%
viability, T/C (second compound 0.00316 µM, first compound 0.316 µM): 100%
viability, T/C (second compound 0.00316 µM, first compound 1 µM): 86.9%
viability, T/C (second compound 0.00316 µM, first compound 3.16 µM): 59.2%
viability, T/C (second compound 0.00316 µM, first compound 10 µM): 29.9%
viability, T/C (second compound 0.01 µM, first compound 0.0316 µM): 98.3%
viability, T/C (second compound 0.01 µM, first compound 0.1 µM): 102%
viability, T/C (second compound 0.01 µM, first compound 0.316 µM): 93.3%
viability, T/C (second compound 0.01 µM, first compound 1 µM): 80.3%
viability, T/C (second compound 0.01 µM, first compound 3.16 µM): 52.8%
viability, T/C (second compound 0.01 µM, first compound 10 µM): 29.5%
viability, T/C [1]: 80.5%
viability, T/C [2]: 81.6%
viability, T/C [3]: 79.9%
viability, T/C [4]: 66.3%
viability, T/C [5]: 45.5%
viability, T/C [6]: 26.6%
viability, T/C [7]: 80.8%
viability, T/C [8]: 71.4%
viability, T/C [9]: 68.6%
viability, T/C [10]: 61.4%
viability, T/C [11]: 41%
viability, T/C [12]: 23.9%
viability, T/C [13]: 72%
viability, T/C [14]: 68.4%
viability, T/C [15]: 61.7%
viability, T/C [16]: 54.7%
viability, T/C [17]: 36.7%
viability, T/C [18]: 21.7%
viability, T/C [19]: 65.4%
viability, T/C [20]: 63.4%
viability, T/C [21]: 59.8%
viability, T/C [22]: 51%
viability, T/C [23]: 36.9%
viability, T/C [24]: 21.4%

pIC50 (second compound 0.0316 µM): < 5.00
pIC50 (second compound 0.1 µM): < 5.00
pIC50 (second compound 0.316 µM): < 5.00
pIC50 (second compound 1 µM): < 5.00
pIC50 (second compound 3.16 µM): 5.22
pIC50 (second compound 10 µM): 5.40
SMILES: C=CC(=O)N1CCN(c2nc(=O)n(-c3c(C)ccnc3C(C)C)c3nc(-c4c(O)cccc4F)c(F)cc23)C(C)C1 (centres undefined) + Cc1nc(NC(=O)N2CCCC2C(N)=O)sc1-c1ccnc(C(C)(C)C(F)(F)F)c1
viability, T/C [1]: 97.5%
viability, T/C [2]: 98.3%
viability, T/C [3]: 96.4%
viability, T/C [4]: 103%
viability, T/C [5]: 120%
viability, T/C [6]: 102%
viability, T/C [7]: 86.5%
viability, T/C [8]: 85.4%
viability, T/C [9]: 93.2%
viability, T/C [10]: 108%
viability, T/C [11]: 109%
viability, T/C [12]: 88.4%
viability, T/C [13]: 74.8%
viability, T/C [14]: 79.1%
viability, T/C [15]: 79%
viability, T/C [16]: 82.8%
viability, T/C [17]: 87.9%
viability, T/C [18]: 66.9%
viability, T/C [19]: 63%
viability, T/C [20]: 66.5%
viability, T/C [21]: 68.2%
viability, T/C [22]: 71.1%
viability, T/C [23]: 62.1%
viability, T/C [24]: 48.5%
viability, T/C (second compound 3.16 µM, first compound 0.0316 µM): 66.3%
viability, T/C (second compound 3.16 µM, first compound 0.1 µM): 66.8%
viability, T/C (second compound 3.16 µM, first compound 0.316 µM): 68%
viability, T/C (second compound 3.16 µM, first compound 1 µM): 65.4%
viability, T/C (second compound 3.16 µM, first compound 3.16 µM): 60.1%
viability, T/C (second compound 3.16 µM, first compound 10 µM): 42.1%
viability, T/C (second compound 10 µM, first compound 0.0316 µM): 67.6%
viability, T/C (second compound 10 µM, first compound 0.1 µM): 60.3%
viability, T/C (second compound 10 µM, first compound 0.316 µM): 60%
viability, T/C (second compound 10 µM, first compound 1 µM): 58.5%
viability, T/C (second compound 10 µM, first compound 3.16 µM): 54.7%
viability, T/C (second compound 10 µM, first compound 10 µM): 36.7%
